Here are results for four compounds from US20250243208A1, “BICYCLIC HETEROCYCLES AS MRGPRX2 ANTAGONISTS” (Incyte Corporation, priority 2024, published 2025).

Test [1] addresses T1, MRGPRX2 (Homo sapiens, UniProt Q96LB1).
T1 sequence (Q96LB1 1-330): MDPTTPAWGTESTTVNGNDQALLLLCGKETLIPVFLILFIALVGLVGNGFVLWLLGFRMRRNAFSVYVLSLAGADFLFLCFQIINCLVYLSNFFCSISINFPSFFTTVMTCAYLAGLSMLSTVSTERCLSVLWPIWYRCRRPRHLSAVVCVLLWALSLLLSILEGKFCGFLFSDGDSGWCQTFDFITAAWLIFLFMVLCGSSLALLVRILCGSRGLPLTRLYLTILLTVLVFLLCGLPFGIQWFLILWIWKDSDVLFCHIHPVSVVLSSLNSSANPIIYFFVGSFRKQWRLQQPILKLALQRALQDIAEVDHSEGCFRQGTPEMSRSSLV
The test is described as follows: potency comparison of separated isomers (assay not stated). The following applies: compared with the other separated diastereomer/enantiomer.

Test [2] has as its target T1, MRGPRX2. The test can be described thus: MRGPRX2 β-Arrestin recruitment assay (PathHunter CHO-K1). In kind it is cell-based. Details: host or cells: PathHunter CHO-K1. The note with it: PathHunter CHO-K1 cells, agonist Cortistatin 14 0.25 μM. From the text:
Example C: MRGPRX2 β-Arrestin Assay
This assay measures compound inhibition of β-Arrestin recruitment, which is part of the G protein-independent pathway that results from the ligand-activated GPCR phosphorylation by specific GPCR kinases. The PathHunter CHO-K1 MRPGRX2 B-Arrestin Cell line stably expressing ProLink tagged MRGPRX2 and Enzyme Acceptor Tagged B-Arrestin was purchased from Eurofins DiscoverX, (Fremont, CA).
The cells were maintained in culture medium from the Europhins DiscoverX Cell Culture Kit-107 which includes FBS, hygromycin B and G418. For the assay, the cells were harvested and were resuspended with Cell Plating Reagent 2 (Eurofins DiscoverX). Cells were added 10000 cells in 25 μL/well to a 384-well black cell culture plate (Greiner VWR, Radnor, PA) which contained 125 nL/well of compound at a selected serially diluted concentration range or DMSO. The plate was incubated at 37° C. with 5% CO2 for 1 h. 2 μL/well of agonist Cortistatin 14 was diluted in Protein Dilution Buffer, (Eurofins DiscoverX) for a final concentration of 0.25 μM, was added and the plate was incubated at 37° C. with 5% CO2 for 90 min. 14 μL/well of Detection Reagent Mix (PathHunter Detection Kit, Eurofins DiscoverX) was added to the plates and further incubated for 1 h in the dark. Plates were read on the PHERAstar microplate reader (BMG Labtech Cary, NC) measuring luminescence 0.1 to 1 s per well. Data was normalized using DMSO only wells and wells with high concentration of reference antagonist as controls. Compound IC50 curves were globally fitted with 3- or 4-parameter Hill equation in a Genedata Screener (Genedata Basel, Switzerland).
For orientation: Arrestin recruitment assays detect the binding of arrestin to an activated receptor.

The target in test [3] is T1, MRGPRX2. The test is described as follows: MRGPRX2 IP1 HTRF assay. In kind it is cell-based. On the set-up: host or cells: CHO-K1. The following applies: CHO-K1 cells, agonist Cortistatin 14 1 μM, IP1 accumulation. An excerpt:
Example B: MRGPRX2 IP1 HTRF Assay
This assay measures compound inhibition of myo-Inositol 1 phosphate (IP1) accumulation in CHO-K1 cells. Chinese hamster ovary (CHO-K1) cells stably expressing human MRGPRX2 were purchased from GenScript (Piscataway, NJ).
For the HTRF IP1 determination, an IP-One GqKit (Perkin Elmer Cisbio, Waltham, MA), which includes all reagents and buffers in this protocol, was used. The cells were maintained in culture medium (Ham's F-12K) containing 10% (v/v) FBS, and 200 μg/mL Zeocin. For the assay, the cells were harvested and resuspended in culture medium with 2% FBS and without Zeocin, then were passed through a 40 μm filter. Cells were added at 20000 cells in a 5 μL/well to a 384-well white small volume cell culture plate (Greiner VWR, Radnor, PA) which contained 50 nL/well of test compound serially diluted at a selected concentration range in DMSO. 5 μL/well of prepared 2× Stimulation Buffer2 was then added to plates and was incubated at 37° C. with 5% CO2 for 1 h. 5 μL/well of agonist Cortistatin 14 (Bio-TechneR&D Systems, Minneapolis, MN) in 1× Stimulation Buffer 2, for a 1 μM final concentration, was then added to plates and incubated at 37° C. with 5% CO2 for 1 h. 6 μL/well of 1:20 diluted Detection Reagent Mix (d2 and Cryptate) was added to the plates and incubated for 1 h in the dark. Plates were read on the PHERAstar microplate reader (BMG Labtech Cary, NC) to determine the HTRF ratio of the acceptor and donor emission signals. The IP1 concentrations were calculated from a standard curve following the IP-One GQ kit instructions. Wells with DMSO only and wells with high concentration of reference antagonist were used as controls for normalization. Compound IC50 curves were globally fitted with 3- or 4-parameter Hill equation in a Genedata Screener (Genedata Basel, Switzerland).
A general note: TR-FRET usually uses a lanthanide donor and a delayed reading to cut background.

In test [4] the target is T1, MRGPRX2. The test can be described thus: MRGPRX2 FLIPR calcium mobilization assay. It is filed as cell-based. Details: host or cells: CHO-K1. The following applies: CHO-K1 cells, agonist Cortistatin-14 at EC80, Ca2+ release. Here is the method:
Example A. MRGPRX2 FLIPR Calcium Mobilization Assay
Chinese hamster ovary (CHO-K1) cells stably expressing human MRGPRX2 were purchased from Genescript (Piscataway, NJ). The cells were maintained in culture medium (Ham's F-12K) containing 10% (v/v) FBS, 200 μg/mL Zeocin, 100 units/mL penicillin G and 100 μg/mL streptomycin (Life Technologies, Carlsbad, CA). For the assay, the cells were harvested and resuspended with culture medium without Zeocin before plating at 8000 cells per well in 20 μL in 384-well black clear bottom cell culture plates (VWR, Radnor, PA). […] Ca^2+ release was measured with FLIPR Penta with 10 s basal fluorescence measurement, then 12.5 μL of 5× agonist Cortistatin-14 (Tocris, Minneapolis, MN) at final concentration corresponding to the EC80 were added followed with continued fluorescence signal monitoring for an additional 110 s. The base line adjusted (median of first 10s base line) max value of the Relative Fluorescence Unit (RFU) was plotted against compound concentrations. […]
(A change in cytosolic calcium serves as a functional read-out for many receptors and channels.)

pIC50: −log10 of the molar value.

With `CC(CNc1cc(C(F)(F)F)nc2cc(C(F)(F)F)nn12)(c1ccc(F)cc1)C1CCN(CC(N)=O)C1` (single isomer, unassigned) [Example 17, 2-(3-(1-((2,5-Bis(trifluoromethyl)pyrazolo[1,5-a]pyrimidin-7-yl)amino)-2-(4-fluorophenyl)propan-2-yl)pyrrolidin-1-yl)acetamide], the “relative potency of the separated isomer” value on MRGPRX2 [1] was “more potent”. Moreover, the pIC50 at MRGPRX2 [2] and on MRGPRX2 [3] was 7.00 to 10.00 each time.

For the compound `CC(CNc1cc(C(F)(F)F)nc2cc(C(F)(F)F)nn12)(c1ccc(F)cc1)C1CN(/C(N)=N/C#N)C1` (racemic) [Example 14, 3-(1-((2,5-Bis(trifluoromethyl)pyrazolo[1,5-a]pyrimidin-7-yl)amino)-2-(4-fluorophenyl)propan-2-yl)-N′-cyanoazetidine-1-carboximidamide], the pIC50 at MRGPRX2 [2], on MRGPRX2 [3] and on MRGPRX2 [4] was 7.00 to 10.00 throughout.

Consider `CC(CNc1cc(C(F)(F)F)nc2cc(C(F)(F)F)nn12)(c1ccc(F)cc1)C1CNC1` (racemic) [Example 13, N-(2-(Azetidin-3-yl)-2-(4-fluorophenyl)propyl)-2,5-bis(trifluoromethyl)pyrazolo[1,5-a]pyrimidin-7-amine], for which the pIC50 on MRGPRX2 [2] and at MRGPRX2 [4] was 7.00 to 10.00 throughout.

As to `CC(CNc1cc(C(F)(F)F)nc2cc(C(F)(F)F)nn12)(c1ccc(F)cc1)C1CCN(C(=O)NCCO)C1` (single isomer, unassigned) [Example 16, 3-(1-((2,5-Bis(trifluoromethyl)pyrazolo[1,5-a]pyrimidin-7-yl)amino)-2-(4-fluorophenyl)propan-2-yl)-N-(2-hydroxyethyl)pyrrolidine-1-carboxamide], the “relative potency of the separated isomer” value at MRGPRX2 [1] is given as “more potent”. Further, the pIC50 on MRGPRX2 [2] and on MRGPRX2 [3] was 7.00 to 10.00 throughout.

As a reminder, the pIC50 is the IC50 on a negative log10 scale, so that one unit is a factor of ten.
